From patent US12448369B2 (Edgewise Therapeutics, Inc., priority 2023, dated 2025)

test system: Rabbit Psoas myofibrils (skeletal myosin ATPase); assay: Myofibril ATPase assay, rabbit psoas (skeletal) myofibrils; assay type: biochemical; settings: Y75 value (no ‡ mark); rabbit psoas myofibrils
Protocol: (§1) Example 1. Myofibril ATPase Assay
(§2) Myofibril ATPase assays are known in the art to be useful in evaluating small molecules for the treatment of HCM and other cardiac indications. Myosin ATPase activity is assessed by using a coupled reaction system, in which ADP generated by the myosin ATPase function is coupled to the disappearance of NADH through the pyruvate kinase/lactate dehydrogenase (PK-LDH) system. ATPase activity produces ADP, which is used as a substrate for PK to produce pyruvate and regenerate ATP. The pyruvate is then used as a substrate by LDH to oxidize NADH to NAD+. The rate of the reaction is monitored through the time-dependent disappearance of NADH using absorbance at 340 nm, which, when the couple system is in stoichiometric excess, is directly correlated to the ATPase activity of the myosin. Inhibition of ATPase activity by the assayed compounds is indicated by a reduced rate of NADH loss, relative to vehicle-treated controls, over the experimental time window. Activation of ATPase activity by the assayed compounds is indicated by an increased rate of NADH loss, relative to vehicle-treated controls, over the experimental time window. Rabbit Psoas, Porcine atria, and Porcine ventricle are the primary sources of myofibril material.
(§3) Materials: The following stock solutions and reagents were used in the Myofibril ATPase Assay:
(§4) Stock Solutions of pCa buffer. Combine PIPES, CaCl2, and EGTA solutions with water. Adjust pH to 7.0 and bring final volume to 100 mL.
(§5) Buffer A & Buffer B. Prepare buffers A and B according to the table below.
(§6) Myofibril ATPase Assay Procedure: BSA, ATP, NADH, PEP, and DTT solutions were thawed at room temperature, then transferred to ice. Pellet-frozen myofibrils were transferred with approximately twice the required volume into a sufficiently large tube and capped. Myofibrils were thawed by rolling in a water bath for approximately 15 min at room temperature and cooled on ice. Buffers A and B were prepared by adjusting volumes as necessary for required number of wells and stored on ice. 0.5 μL of the compounds to be assayed were added into wells. 25 μL of Buffer A was dispensed into the wells, followed by 25 μL of Buffer B. The wells were measured for absorbance at 340 nm, using a kinetic protocol in which the wells are read every 1.5-2 min for 75 min. Assay data analysis was performed using a python script that filtered the raw data to retain those points falling between a starting and ending time and between a maximum and minimum absorbance, then used the filtered time-domain 340 nm absorbance data in each well to calculate a slope via linear regression analysis in units of mAU/min. Compound slopes were normalized between 100% and 0% activity, where 100% represented the slope of wells containing only compound vehicle, and fit to a 4-parameter logistic model. In addition to the fit parameters, the EC25% values were calculated, relative to the 100% normalized value. Additionally, the Y125 values were calculated for compounds that increased myosin ATP-ase activity. Fit parameters, calculated effective concentrations, filtered raw data, and calculated slopes were exported, in addition to compound-specific graphs of normalized ATPase activity versus concentration in μM. Each value reported in Table 5, Table 6, and Table 7 is either a Y75 value or a Y125 value. Values without a double cross sign, ‡, are Y75 values, which reflect the concentration required to reduce myosin ATP-ase activity by 25% (e.g., Y-axis activity value is 75% of initial value), relative to myosin ATP-ase activity in the absence of exogenous compound.
Skeletal Myofibril Isolation:
(§7) Myofibrils from various animals and tissue types were acquired from a variety of sources: rabbit psoas muscle was purchased from Pel-Freez Biologicals (Rogers, AR) and porcine cardiac muscle was purchased from Exemplar Genetics. All myofibrils were prepared using a method based upon those described in Herrmann et al. (1993) and summarized here. […]

SMILES | Skeletal EC25
Cc1c(CC(=O)N[C@@H](C)c2cnc(C#N)nc2)c(=O)[nH]c2ccc(F)cc12 [compound 1101] | 60 nM
C[C@H](NC(=O)C(F)(F)c1cc2c(F)c(F)ccc2[nH]c1=O)c1nccc(C#N)n1 (single isomer, unassigned) [compound 2562] | 280 nM
Cc1cc(C#N)nnc1[C@H](C)NC(=O)Cc1c(C)c2cc(F)ccc2[nH]c1=O [compound 1059] | 390 nM
Cc1c(C(F)(F)C(=O)N[C@H](C)c2ncc(C#N)cc2F)c(=O)[nH]c2ccc(F)c(C#N)c12 (single isomer, unassigned) [compound 4835] | 110 nM
Cc1c(C(F)(F)C(=O)N[C@@H](C)c2ncc(C#N)cn2)c(=O)[nH]c2ccc(F)c(C(F)(F)F)c12 (single isomer, unassigned) [Compound 2514] | 160 nM
C[C@@H](NC(=O)C(F)(F)c1cc2c(F)c(F)ccc2[nH]c1=O)c1cccc(C#N)n1 (single isomer, unassigned) [compound 2571] | 100000 nM
Cc1c(C2(C(=O)N[C@H](C)c3cc(C#N)ccn3)CC2)c(=O)[nH]c2ccc(F)cc12 (single isomer, unassigned) [compound 2577] | 100000 nM
Cc1c(CC(=O)N[C@H](C)c2ccc(C#N)nn2)c(=O)[nH]c2cc(F)c(F)cc12 [compound 1042] | 1880 nM
COc1ccc2[nH]c(=O)c(CC(=O)N[C@H](C)c3ncc(F)cc3F)cc2c1C (single isomer, unassigned) [compound 79] | 100000 nM
Cc1c(F)ccc2[nH]c(=O)c(CC(=O)N[C@@H](C)c3ncc(C#N)cc3F)c(C#N)c12 [compound 1150] | 40 nM
Cc1c(C(F)(F)C(=O)N[C@H](C)c2ncc(C#N)cc2F)c(=O)[nH]c2ccc(F)cc12 (single isomer, unassigned) [compound 2606] | 100 nM
Cc1cc(F)cnc1[C@H](C)NC(=O)C(F)(F)c1c(C)c2cc(F)ccc2[nH]c1=O (single isomer, unassigned) [compound 4808] | 100000 nM
Cc1cc(F)cnc1[C@@H](C)NC(=O)C(F)(F)c1c(C)c2cc(F)ccc2[nH]c1=O (single isomer, unassigned) [compound 4807] | 820 nM

same assay, conditions: rabbit psoas myofibrils; Y75 value

SMILES | Skeletal EC25
Cc1c(CC(=O)N[C@H]2COc3cc(F)cc(F)c32)c(=O)[nH]c2ccnc(C#N)c12 (single isomer, unassigned) [compound 274] | 20 nM

test system: Porcine atria myofibrils (atrial myosin ATPase); assay: Myofibril ATPase assay, porcine atria myofibrils; assay type: biochemical; settings: Y75 value (no ‡ mark); porcine atria myofibrils
Protocol: as §1, §2, §3, §4, §5, §6, §7

SMILES | Atrial EC25
Cc1c(CC(=O)N[C@@H](C)c2cnc(C#N)nc2)c(=O)[nH]c2ccc(F)cc12 [compound 1101] | 170 nM
C[C@H](NC(=O)C(F)(F)c1cc2c(F)c(F)ccc2[nH]c1=O)c1nccc(C#N)n1 (single isomer, unassigned) [compound 2562] | 150 nM
Cc1cc(C#N)nnc1[C@H](C)NC(=O)Cc1c(C)c2cc(F)ccc2[nH]c1=O [compound 1059] | 130 nM
Cc1c(C(F)(F)C(=O)N[C@H](C)c2ncc(C#N)cc2F)c(=O)[nH]c2ccc(F)c(C#N)c12 (single isomer, unassigned) [compound 4835] | 180 nM
Cc1c(C(F)(F)C(=O)N[C@@H](C)c2ncc(C#N)cn2)c(=O)[nH]c2ccc(F)c(C(F)(F)F)c12 (single isomer, unassigned) [Compound 2514] | 600 nM
C[C@@H](NC(=O)C(F)(F)c1cc2c(F)c(F)ccc2[nH]c1=O)c1cccc(C#N)n1 (single isomer, unassigned) [compound 2571] | 40540 nM
Cc1c(C2(C(=O)N[C@H](C)c3cc(C#N)ccn3)CC2)c(=O)[nH]c2ccc(F)cc12 (single isomer, unassigned) [compound 2577] | 19550 nM
Cc1c(CC(=O)N[C@H](C)c2ccc(C#N)nn2)c(=O)[nH]c2cc(F)c(F)cc12 [compound 1042] | 890 nM
COc1ccc2[nH]c(=O)c(CC(=O)N[C@H](C)c3ncc(F)cc3F)cc2c1C (single isomer, unassigned) [compound 79] | 100000 nM
Cc1c(F)ccc2[nH]c(=O)c(CC(=O)N[C@@H](C)c3ncc(C#N)cc3F)c(C#N)c12 [compound 1150] | 50 nM
Cc1c(C(F)(F)C(=O)N[C@H](C)c2ncc(C#N)cc2F)c(=O)[nH]c2ccc(F)cc12 (single isomer, unassigned) [compound 2606] | 80 nM

same assay, conditions: porcine atria myofibrils; Y75 value (75% activity relative to no compound)

SMILES | Atrial EC25
Cc1c(CC(=O)N[C@H]2COc3cc(F)cc(F)c32)c(=O)[nH]c2ccnc(C#N)c12 (single isomer, unassigned) [compound 274] | 40 nM

biological target: T1, Porcine ventricle myofibrils (ventricular myosin ATPase) (Sus scrofa, UniProt P79293); assay: Myofibril ATPase assay, porcine ventricle myofibrils; assay type: biochemical, porcine (Yucatan minipigs); settings: Y75 value (no ‡ mark); porcine ventricle myofibrils
T1 construct: Myofibrils from porcine cardiac muscle was isolated from the left ventricle of Yucatan minipigs; tissue Exemplar Genetics; host or cells: left ventricle of Yucatan minipigs, myofibrils prepared in house
Protocol: as §1, §2, §3, §4, §5, §6
Cardiac Myofibril Isolation:
Myofibrils from porcine cardiac muscle was isolated from the left ventricle of Yucatan minipigs. Myofibrils were prepared using a method based upon those described in Herrmann et al. (1993) and summarized here. […]

T1 sequence (P79293 whole entry): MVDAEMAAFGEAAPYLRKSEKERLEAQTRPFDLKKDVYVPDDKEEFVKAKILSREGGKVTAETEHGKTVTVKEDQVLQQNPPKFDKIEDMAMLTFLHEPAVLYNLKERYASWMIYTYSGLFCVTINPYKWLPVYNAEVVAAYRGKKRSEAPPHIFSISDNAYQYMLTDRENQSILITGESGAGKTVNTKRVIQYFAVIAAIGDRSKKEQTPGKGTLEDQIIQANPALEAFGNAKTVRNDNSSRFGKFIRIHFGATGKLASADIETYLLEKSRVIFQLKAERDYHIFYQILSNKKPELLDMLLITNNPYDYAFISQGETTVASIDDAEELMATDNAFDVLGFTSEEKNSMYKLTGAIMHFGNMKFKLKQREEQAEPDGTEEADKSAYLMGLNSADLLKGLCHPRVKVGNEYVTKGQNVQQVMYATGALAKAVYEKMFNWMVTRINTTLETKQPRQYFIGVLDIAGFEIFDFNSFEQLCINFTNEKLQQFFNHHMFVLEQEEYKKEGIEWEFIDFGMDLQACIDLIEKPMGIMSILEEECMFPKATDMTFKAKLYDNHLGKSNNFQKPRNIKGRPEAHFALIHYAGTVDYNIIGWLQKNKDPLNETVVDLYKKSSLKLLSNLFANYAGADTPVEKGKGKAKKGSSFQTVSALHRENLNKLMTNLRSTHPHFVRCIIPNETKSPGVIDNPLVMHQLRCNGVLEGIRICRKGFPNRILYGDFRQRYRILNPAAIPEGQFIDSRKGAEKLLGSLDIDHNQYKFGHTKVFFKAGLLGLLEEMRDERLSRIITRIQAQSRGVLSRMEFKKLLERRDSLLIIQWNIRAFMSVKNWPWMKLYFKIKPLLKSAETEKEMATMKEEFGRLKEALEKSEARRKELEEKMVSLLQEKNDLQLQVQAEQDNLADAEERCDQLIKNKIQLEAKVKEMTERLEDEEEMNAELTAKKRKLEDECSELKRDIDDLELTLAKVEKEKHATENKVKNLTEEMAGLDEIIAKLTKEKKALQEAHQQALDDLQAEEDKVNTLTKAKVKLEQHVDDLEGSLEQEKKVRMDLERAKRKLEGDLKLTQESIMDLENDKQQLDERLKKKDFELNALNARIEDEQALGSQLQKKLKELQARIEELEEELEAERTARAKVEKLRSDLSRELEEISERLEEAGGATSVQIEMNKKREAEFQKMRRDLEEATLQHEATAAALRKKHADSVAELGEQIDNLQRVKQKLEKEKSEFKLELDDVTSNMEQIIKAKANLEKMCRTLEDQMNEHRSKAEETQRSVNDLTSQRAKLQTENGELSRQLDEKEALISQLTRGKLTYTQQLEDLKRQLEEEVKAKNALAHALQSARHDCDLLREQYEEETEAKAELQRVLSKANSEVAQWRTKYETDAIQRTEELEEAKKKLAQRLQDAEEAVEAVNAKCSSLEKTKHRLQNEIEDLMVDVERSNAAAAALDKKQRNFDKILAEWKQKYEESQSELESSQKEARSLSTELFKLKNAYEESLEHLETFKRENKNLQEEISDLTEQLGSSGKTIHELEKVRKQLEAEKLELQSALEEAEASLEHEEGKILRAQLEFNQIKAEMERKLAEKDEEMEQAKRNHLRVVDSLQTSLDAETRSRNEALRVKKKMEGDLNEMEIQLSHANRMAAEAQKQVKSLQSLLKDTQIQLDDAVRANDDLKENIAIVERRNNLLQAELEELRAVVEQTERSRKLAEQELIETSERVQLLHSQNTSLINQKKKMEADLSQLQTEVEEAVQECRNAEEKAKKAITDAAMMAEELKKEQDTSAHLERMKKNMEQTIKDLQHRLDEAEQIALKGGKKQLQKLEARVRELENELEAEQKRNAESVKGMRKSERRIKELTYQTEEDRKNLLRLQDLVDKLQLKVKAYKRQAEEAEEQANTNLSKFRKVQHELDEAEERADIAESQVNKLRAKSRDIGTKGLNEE

SMILES | Ventricular EC25
Cc1c(CC(=O)N[C@@H](C)c2cnc(C#N)nc2)c(=O)[nH]c2ccc(F)cc12 [compound 1101] | 310 nM
C[C@H](NC(=O)C(F)(F)c1cc2c(F)c(F)ccc2[nH]c1=O)c1nccc(C#N)n1 (single isomer, unassigned) [compound 2562] | 750 nM
Cc1cc(C#N)nnc1[C@H](C)NC(=O)Cc1c(C)c2cc(F)ccc2[nH]c1=O [compound 1059] | 160 nM
Cc1c(C(F)(F)C(=O)N[C@H](C)c2ncc(C#N)cc2F)c(=O)[nH]c2ccc(F)c(C#N)c12 (single isomer, unassigned) [compound 4835] | 770 nM
Cc1c(C(F)(F)C(=O)N[C@@H](C)c2ncc(C#N)cn2)c(=O)[nH]c2ccc(F)c(C(F)(F)F)c12 (single isomer, unassigned) [Compound 2514] | 1530 nM
C[C@@H](NC(=O)C(F)(F)c1cc2c(F)c(F)ccc2[nH]c1=O)c1cccc(C#N)n1 (single isomer, unassigned) [compound 2571] | 8060 nM
Cc1c(C2(C(=O)N[C@H](C)c3cc(C#N)ccn3)CC2)c(=O)[nH]c2ccc(F)cc12 (single isomer, unassigned) [compound 2577] | 100000 nM
Cc1c(CC(=O)N[C@H](C)c2ccc(C#N)nn2)c(=O)[nH]c2cc(F)c(F)cc12 [compound 1042] | 24000 nM
COc1ccc2[nH]c(=O)c(CC(=O)N[C@H](C)c3ncc(F)cc3F)cc2c1C (single isomer, unassigned) [compound 79] | 100000 nM
Cc1c(F)ccc2[nH]c(=O)c(CC(=O)N[C@@H](C)c3ncc(C#N)cc3F)c(C#N)c12 [compound 1150] | 50 nM
Cc1c(C(F)(F)C(=O)N[C@H](C)c2ncc(C#N)cc2F)c(=O)[nH]c2ccc(F)cc12 (single isomer, unassigned) [compound 2606] | 770 nM
Cc1cc(F)cnc1[C@H](C)NC(=O)C(F)(F)c1c(C)c2cc(F)ccc2[nH]c1=O (single isomer, unassigned) [compound 4808] | 100000 nM
Cc1cc(F)cnc1[C@@H](C)NC(=O)C(F)(F)c1c(C)c2cc(F)ccc2[nH]c1=O (single isomer, unassigned) [compound 4807] | 1390 nM

same assay, conditions: porcine ventricle myofibrils; Y75 value

SMILES | Ventricular EC25
Cc1c(CC(=O)N[C@H]2COc3cc(F)cc(F)c32)c(=O)[nH]c2ccnc(C#N)c12 (single isomer, unassigned) [compound 274] | 130 nM
